Results as given in patent publication US12370182B2, “Bicyclic derivatives as GABAA A5 receptor modulators” (RICHTER GEDEON NYRT., priority 2018, dated 2025).

Target: human recombinant GABAA α5β3γ2 receptor (Homo sapiens (Human), UniProt P18507+P31644)
Test: Binding assay, [3H]Ro151788 displacement on membranes of HEK cells
Details: 0.5 nM [3H]Ro151788, 60 minutes at 4° C., Cheng-Prusoff; read-out: hGABAA α5 Ki
Description: The GABAA α5β3γ2 protein used for the receptor binding assay was derived from membranes produced from HEK cells (Millipore CYL3073) expressing the human recombinant GABAA α5β3γ2 receptor. Cells were stored and cultured in-house according to the instructions provided by the vendor (Millipor). Cell pellet was homogenized in 10 times modified Krebs Henseleit buffer (membrane preparation buffer): 20 mM Tris, 120 mM NaCl, 100 mM KCl, 25 mM CaCl2) and 25 mM MgCl2 pH=7.4 at 4° C. using Ultra Turrax (Janke&Kunkel) maximal speed for 15 seconds. The homogenate was centrifuged at 40,000 g for 30 minutes at 4° C. Supernatant was discarded and the resulting pellet was washed in membrane preparation buffer. Pellet was resuspended in membrane preparation buffer and aliquots of 1.4 mL ampulles were stored at −70° C. until use.
Receptor binding assays were performed in 96-well format in deep-well plates. For each 96-well plate one ampulle of membrane homogenate was thawed and diluted in binding buffer (50 mM Tris pH=7.4, 100 mM KCl) and 200 μL was dispensed into each well. Radioligand [^3H]Ro151788 (Perkin Elmer: NET757250UC) was prepared in binding buffer and added to each well in 50 μL volume to give final concentration of 0.5 nM. Test compounds in suitable concentration(s) were added in additional 50 μL. The final assay volume was 300 μL. Incubation was carried out for 60 minutes at 4° C. For non-specific binding 10 μM unlabeled diazepam was used. After incubation samples were filtered over UniFilter® GF/B™ using Filtermate Harvester (Perkin Elmer) and washed with 5×1 mL binding buffer. The plate was dried at 40° C. for an hour and 40 μL Microscint (Perkin Elmer) scintillation cocktail was added to each well. The plate was read in Microbeta (Perkin Elmer).
The specific radioligand binding (SB) was defined as the difference between total binding (Tot) and the non-specific binding (NSB). Results are expressed as a percent inhibition of specific binding obtained in the presence of compound of interest.
For IC50 and Ki determination a minimum of six drug concentrations in triplicate were used. […] Ki values (i.e. inhibition constants) were calculated using the Cheng-Prusoff equation Ki=IC50/[1+(L/KD)], where [L] is the radioligand concentration and KD the affinity of the labelled ligand for receptor. KD was determined from the Saturation analyses.

Chain of human recombinant GABAA α5β3γ2 receptor (P31644 32-462): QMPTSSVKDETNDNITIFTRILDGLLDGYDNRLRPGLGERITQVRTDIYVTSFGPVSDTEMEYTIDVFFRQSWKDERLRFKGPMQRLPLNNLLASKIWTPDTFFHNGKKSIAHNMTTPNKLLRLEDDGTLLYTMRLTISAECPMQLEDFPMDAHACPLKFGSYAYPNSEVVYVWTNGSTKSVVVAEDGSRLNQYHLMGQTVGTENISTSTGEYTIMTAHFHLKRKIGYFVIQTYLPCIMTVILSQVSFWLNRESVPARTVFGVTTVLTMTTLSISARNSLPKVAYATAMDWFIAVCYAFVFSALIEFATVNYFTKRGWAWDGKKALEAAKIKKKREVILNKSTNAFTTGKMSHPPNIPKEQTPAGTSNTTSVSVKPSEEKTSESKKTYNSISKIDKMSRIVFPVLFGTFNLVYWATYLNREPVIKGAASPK
Chain of human recombinant GABAA α5β3γ2 receptor (P28472 26-473 partner): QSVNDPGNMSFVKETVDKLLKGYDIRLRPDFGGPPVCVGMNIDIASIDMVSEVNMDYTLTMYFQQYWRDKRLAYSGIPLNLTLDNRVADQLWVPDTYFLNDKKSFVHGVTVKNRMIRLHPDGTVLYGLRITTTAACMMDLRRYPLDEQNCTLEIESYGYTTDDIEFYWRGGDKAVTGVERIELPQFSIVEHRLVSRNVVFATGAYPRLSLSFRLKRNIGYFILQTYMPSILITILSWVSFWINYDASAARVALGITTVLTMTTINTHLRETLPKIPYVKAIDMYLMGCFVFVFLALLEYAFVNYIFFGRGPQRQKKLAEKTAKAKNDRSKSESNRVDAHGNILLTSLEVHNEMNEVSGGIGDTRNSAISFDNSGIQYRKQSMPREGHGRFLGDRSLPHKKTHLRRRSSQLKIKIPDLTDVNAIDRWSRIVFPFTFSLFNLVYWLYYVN
Chain of human recombinant GABAA α5β3γ2 receptor (P18507 40-475): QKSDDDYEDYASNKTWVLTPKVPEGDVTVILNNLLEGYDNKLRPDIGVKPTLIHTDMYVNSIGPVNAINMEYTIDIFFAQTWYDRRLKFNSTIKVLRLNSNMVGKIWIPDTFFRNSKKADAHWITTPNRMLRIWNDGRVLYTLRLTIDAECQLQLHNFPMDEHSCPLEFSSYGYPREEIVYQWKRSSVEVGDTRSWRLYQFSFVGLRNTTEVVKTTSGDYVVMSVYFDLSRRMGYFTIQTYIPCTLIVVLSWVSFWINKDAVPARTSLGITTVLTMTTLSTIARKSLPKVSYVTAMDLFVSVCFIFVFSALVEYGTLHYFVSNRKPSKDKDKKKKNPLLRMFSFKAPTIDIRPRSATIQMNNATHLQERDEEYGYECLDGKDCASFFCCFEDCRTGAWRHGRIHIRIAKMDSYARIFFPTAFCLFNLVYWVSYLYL

Row | Ki [µM] | SMILES
1 | 0.0065 | Cc1onc(-c2ccc(F)cc2)c1COc1ccc2c(n1)CCN(C(=O)NC1CCOC1)C2 (stereo not drawn) [Example 86, 2-{[3-(4-fluorophenyl)-5-methyl-1,2-oxazol-4-yl]methoxy}-N-(oxolan-3-yl)-5,6,7,8-tetrahydro-1,6-naphthyridine-6-carboxamide]
2 | 0.071 | COC1CCC(C(=O)N2CCc3nc(OCc4c(C)nnn4-c4ccc(F)cc4)ccc3C2)CC1 (stereo not drawn) [Example 35, 2-{[1-(4-fluorophenyl)-4-methyl-1H-1,2,3-triazol-5-yl]methoxy}-6-(4-methoxycyclohexanecarbonyl)-5,6,7,8-tetrahydro-1,6-naphthyridine]
3 | 0.033 | Cc1onc(-c2ccc(F)cc2)c1COc1ccc2c(n1)CCN(C(=O)CCS(C)(=O)=O)C2 [Example 48, 1-(2-{[3-(4-fluorophenyl)-5-methyl-1,2-oxazol-4-yl]methoxy}-5,6,7,8-tetrahydro-1,6-naphthyridin-6-yl)-3-methanesulfonylpropan-1-one]
4 | 0.013 | COCC(=O)N1CCc2nc(OCc3c(C)nnn3-c3ccc(Cl)cc3)ccc2C1 [Example 42, 1-(2-{[1-(4-chlorophenyl)-4-methyl-1H-1,2,3-triazol-5-yl]methoxy}-5,6,7,8-tetrahydro-1,6-naphthyridin-6-yl)-2-methoxyethan-1-one]
5 | 0.021 | Cc1cc(C(=O)N2CCc3nc(OCc4c(-c5ccc(F)cc5)noc4C)ccc3C2)no1 [Example 10, 2-{[3-(4-fluorophenyl)-5-methyl-1,2-oxazol-4-yl]methoxy}-6-(5-methyl-1,2-oxazole-3-carbonyl)-5,6,7,8-tetrahydro-1,6-naphthyridine]
6 | 0.049 | Cc1nnn(-c2ccc(F)cc2)c1COc1ccc2c(n1)CCN(C(=O)C1CC1)C2 [Example 19, 6-cyclopropanecarbonyl-2-{[1-(4-fluorophenyl)-4-methyl-1H-1,2,3-triazol-5-yl]methoxy}-5,6,7,8-tetrahydro-1,6-naphthyridine]
7 | 0.03 | CCN1CC(C(=O)N2CCc3nc(OCc4c(C)nnn4-c4ccc(F)cc4)ccc3C2)CC1=O (stereo not drawn) [Example 43, 1-ethyl-4-(2-{[1-(4-fluorophenyl)-4-methyl-1H-1,2,3-triazol-5-yl]methoxy}-5,6,7,8-tetrahydro-1,6-naphthyridine-6-carbonyl)pyrrolidin-2-one]
8 | 0.059 | Cc1nnn(-c2ccc(F)cc2)c1COc1ccc2c(n1)CN(C(=O)c1ccccn1)C2 [Example 66, 2-(2-{[1-(4-fluorophenyl)-4-methyl-1H-1,2,3-triazol-5-yl]methoxy}-5H,6H,7H-pyrrolo[3,4-b]pyridine-6-carbonyl)pyridine]
9 | 0.022 | Cc1nnn(-c2ccc(Cl)cc2)c1COc1ccc2c(n1)CCN(C(=O)C1CCOCC1)C2 [Example 32, 2-{[1-(4-chlorophenyl)-4-methyl-1H-1,2,3-triazol-5-yl]methoxy}-6-(oxane-4-carbonyl)-5,6,7,8-tetrahydro-1,6-naphthyridine]
10 | 0.03 | Cc1nnn(-c2ccc(F)cc2)c1COc1ccc2c(n1)CCN(C(=O)N(C)C)C2 [Example 76, 2-{[1-(4-fluorophenyl)-4-methyl-1H-1,2,3-triazol-5-yl]methoxy}-N,N-dimethyl-5,6,7,8-tetrahydro-1,6-naphthyridine-6-carboxamide]
11 | 0.0075 | CC(=O)N1Cc2ccc(OCc3c(-c4ccc(Cl)cc4)nnn3C)nc2C1 [Example 68, 1-(2-{[4-(4-chlorophenyl)-1-methyl-1H-1,2,3-triazol-5-yl]methoxy}-5,7-dihydro-6H-pyrrolo[3,4-b]pyridin-6-yl)ethanone]
12 | 0.067 | Cc1nnn(-c2ccc(F)cc2)c1COc1ccc2c(n1)CCN(C(=O)[C@H]1CCC(=O)N1C)C2 [Example 41, (5R)-5-(2-{[1-(4-fluorophenyl)-4-methyl-1H-1,2,3-triazol-5-yl]methoxy}-5,6,7,8-tetrahydro-1,6-naphthyridine-6-carbonyl)-1-methylpyrrolidin-2-one]
13 | 0.0095 | Cc1nnn(-c2ccc(F)cc2)c1COc1ccc2c(n1)CN(C(=O)C1CCCOC1)C2 (stereo not drawn) [Example 63, 1-(4-fluorophenyl)-4-methyl-5-({[6-(oxane-3-carbonyl)-5H,6H,7H-pyrrolo[3,4-b]pyridin-2-yl]oxy}methyl)-1H-1,2,3-triazole]
14 | 0.02 | CC(=O)N1Cc2ccc(OCc3c(-c4ccc(F)cc4)nnn3C)nc2C1 [Example 67, 1-(2-{[4-(4-fluorophenyl)-1-methyl-1H-1,2,3-triazol-5-yl]methoxy}-5,7-dihydro-6H-pyrrolo[3,4-b]pyridin-6-yl)ethanone]
15 | 0.025 | Cc1nnn(-c2ccc(F)cc2)c1COc1ccc2c(n1)CN(C(=O)c1ccncc1)C2 [Example 64, 4-(2-{[1-(4-fluorophenyl)-4-methyl-1H-1,2,3-triazol-5-yl]methoxy}-5H,6H,7H-pyrrolo[3,4-b]pyridine-6-carbonyl)pyridine]
16 | 0.018 | Cn1nnc(-c2ccc(F)cc2)c1COc1ccc2c(n1)CN(C(=O)C1CCCO1)C2 (stereo not drawn) [Example 73, 4-(4-fluorophenyl)-1-methyl-5-({[6-(oxolane-2-carbonyl)-5H,6H,7H-pyrrolo[3,4-b]pyridin-2-yl]oxy}methyl)-1H-1,2,3-triazole]
17 | 0.057 | Cc1nnn(-c2ccc(F)cc2)c1COc1ccc2c(n1)CCN(C(=O)C(C)C)C2 [Example 22, 1-(2-{[1-(4-fluorophenyl)-4-methyl-1H-1,2,3-triazol-5-yl]methoxy}-5,6,7,8-tetrahydro-1,6-naphthyridin-6-yl)-2-methylpropan-1-one]
18 | 0.011 | Cc1nnn(-c2ccc(F)cc2)c1COc1ccc2c(n1)CN(C(=O)C(F)F)C2 [Example 53, 2,2-difluoro-1-(2-{[1-(4-fluorophenyl)-4-methyl-1H-1,2,3-triazol-5-yl]methoxy}-5,7-dihydro-6H-pyrrolo[3,4-b]pyridin-6-yl)ethanone]
19 | 0.014 | Cc1nnn(-c2ccc(Cl)cc2)c1COc1ccc2c(n1)CCN(C(=O)c1ccncc1)C2 [Example 33, 2-{[1-(4-chlorophenyl)-4-methyl-1H-1,2,3-triazol-5-yl]methoxy}-6-(pyridine-4-carbonyl)-5,6,7,8-tetrahydro-1,6-naphthyridine]
20 | 0.084 | Cc1nnn(-c2ccc(F)cc2)c1COc1ccc2c(n1)CCN(C(=O)C1CCC(=O)N(C)C1)C2 (stereo not drawn) [Example 46, 5-(2-{[1-(4-fluorophenyl)-4-methyl-1H-1,2,3-triazol-5-yl]methoxy}-5,6,7,8-tetrahydro-1,6-naphthyridine-6-carbonyl)-1-methylpiperidin-2-one]
21 | 0.056 | Cc1nnn(-c2ccc(F)cc2)c1COc1ccc2c(n1)CCN(C(=O)[C@@H]1CCC(=O)N1C)C2 [Example 40, (5S)-5-(2-{[1-(4-fluorophenyl)-4-methyl-1H-1,2,3-triazol-5-yl]methoxy}-5,6,7,8-tetrahydro-1,6-naphthyridine-6-carbonyl)-1-methylpyrrolidin-2-one]
22 | 0.029 | CC(C)C(=O)N1Cc2ccc(OCc3c(-c4ccc(F)cc4)nnn3C)nc2C1 [Example 72, 1-(2-{[4-(4-fluorophenyl)-1-methyl-1H-1,2,3-triazol-5-yl]methoxy}-5H,6H,7H-pyrrolo[3,4-b]pyridin-6-yl)-2-methylpropan-1-one]
23 | 0.066 | Cc1nnn(-c2ccc(F)cc2)c1COc1ccc2c(n1)CCN(C(=O)N1CCCC1)C2 [Example 77, 2-{[1-(4-fluorophenyl)-4-methyl-1H-1,2,3-triazol-5-yl]methoxy}-6-(pyrrolidine-1-carbonyl)-5,6,7,8-tetrahydro-1,6-naphthyridine]
24 | 0.069 | Cc1nnn(-c2ccc(F)cc2)c1COc1ccc2c(n1)CCN(C(=O)c1ccc(C(F)(F)F)nc1)C2 [Example 37, 2-{[1-(4-fluorophenyl)-4-methyl-1H-1,2,3-triazol-5-yl]methoxy}-6-[6-(trifluoromethyl)pyridine-3-carbonyl]-5,6,7,8-tetrahydro-1,6-naphthyridine]
25 | 0.029 | Cc1nnn(-c2ccc(F)cc2)c1COc1ccc2c(n1)CCN(C(=O)c1ccncc1)C2 [Example 25, 2-{[1-(4-fluorophenyl)-4-methyl-1H-1,2,3-triazol-5-yl]methoxy}-6-(pyridine-4-carbonyl)-5,6,7,8-tetrahydro-1,6-naphthyridine]
26 | 0.037 | CCC(=O)N1Cc2ccc(OCc3c(C)nnn3-c3ccc(F)cc3)nc2C1 [Example 52, 1-(2-{[1-(4-fluorophenyl)-4-methyl-1H-1,2,3-triazol-5-yl]methoxy}-5,7-dihydro-6H-pyrrolo[3,4-b]pyridin-6-yl)propan-1-one]
27 | 0.038 | Cc1nnn(-c2ccc(F)cc2)c1COc1ccc2c(n1)CCN(C(=O)N1CCOCC1)C2 [Example 80, 2-{[1-(4-fluorophenyl)-4-methyl-1H-1,2,3-triazol-5-yl]methoxy}-6-(morpholine-4-carbonyl)-5,6,7,8-tetrahydro-1,6-naphthyridine]
